In US12582616B2, “Molecular targets for modulation of dissociative and associative states” (The Board of Trustees of the Leland Stanford Junior …, priority 2020, dated 2026):

What was measured:
[1] = test system: retrosplenial cortex (RSP); assay: Fiber photometry and widefield imaging of RSP, dose comparison; type: in vivo, mouse
Text: A 405 nm and 470 nm LED illumination (Thorlabs) was combined (425 nm longpass, Thorlabs DMLP425) and coupled into a fiber optic patch cord (400 μm diameter, 0.48 NA, Doric Lenses) using a longpass dichroic (505 nm, Thorlabs DMLP505) and a fixed-focused coupler/collimator with a standard FC connector (F240FC-A, NA 0.51, f=7.9 mm)^47,48. Each illumination channel was frequency modulated using the sync output from a lock-in amplifier (SR810 DSP, Stanford Research Systems). GCaMP fluorescence was collected through the same patchcord and delivered through a bandpass emission filter (Semrock, FF01-520/35) onto a NewFocus 2151 femtowatt silicon photoreceiver (Newport, DC Low mode). […]
Analysis was performed using custom MATLAB (MathWorks) scripts. […] For quantification, activity traces were extracted from points centered in five cortical regions (visual, somatosensory, parietal, motor, retrosplenial) on the left hemisphere of the brain. […]
Each trace (corresponding to either a fiber photometry signal, a cellular two-photon signal, a widefield regional centroid, a widefield pixel, an sEEG trace, or a smoothed spike rate Neuropixels trace) was z-scored, and the power spectral density (PSD) was then estimated using Welch's method (pwelch( ) in Matlab), with a window size of 10*fs (15*fs for human sEEG) where fs is the sampling rate of the signal. […]

[2] = test system: mice; assay: Righting reflex assay; type: in vivo, mouse
Text: Righting Reflex Assay: Mice were held at the neck and tail, rotated to supine position on a flat surface, and quickly released. Time to right was quantified as moment of release to moment when all 4 legs touched the ground. A five second threshold was used to classify righting success (less than 5 seconds) from failure (more than 5 seconds). […] Illumination began for 30 seconds, and then the mouse was swiftly inverted onto the flat surface.

[3] = test system: mouse; settings: cited from earlier work
[4] = test system: brain regions correlated with RSP; assay: Simultaneous recording from four Neuropixels probes with i.p. drug delivery
Protocol: Mice were anesthetized with isoflurane, carefully leveled in a stereotaxic apparatus and their scalp and periosteum were removed. A 3% hydrogen peroxide in saline solution was used to clean the surface of the skull. A custom stainless steel headbar was leveled on the skull and attached using clear dental cement. After the cement had dried, targeted probe entry sites were stereotaxically marked on the cement layer with a permanent marker (Day 1: “mPFC”, 2.3AP, 0.6ML; “somatosensory”, −0.7AP, −4.0ML; “retrosplenial”, −2AP, −1 ML; “subiculum”, −3.5AP, 2.14ML; Day 2: “OFC”: 2.5AP, 1.5ML; “mPFC”: 2.3AP, −0.6ML; “retrosplenial”, −2AP, 1ML; “thalamus”, −1.5AP, −1.7ML). In part, they were selected to cover areas with known connectivity to the retrosplenial cortex. A 2 mm long insulated platinum-iridium wire was implanted centrally over the cerebellum, with the last several hundred microns bared to serve as an electrical reference.
Mice were acclimated to head fixation and the recording rig over several days before recording. Several hours before recording, mice were anesthetized for approximately 30 minutes each while small 1 mm craniotomies were made over four pre-marked areas. Craniotomies were kept clean of bone fragments and made such that bleeding was minimized. The skull was covered with a pool of saline and with Quik-Cast to protect and keep moist craniotomies before recording. Mice recovered in their homecages before recording. Immediately prior to recording set up, mice were very briefly anesthetized with isoflurane and implanted with an IV catheter system (BD Saf-T-Intima Closed IV Catheter System: 22G×3/4′, containing an integrated Y adaptor and safety lock) to their intraperitoneal cavity and affixed with glue. […] While still anesthetized, mice were headfixed and tubing was secured stably to a custom mouse holder by tape. Quik-Cast was removed from the skull, and craniotomies were briefly cleaned before being submerged in a pool of saline. […] The four acquisitions were synchronized using a common squarewave signal recorded for all probes and aligned to the nearest pulse edge. […]

[5] = test system: mice; assay: Open field test; type: in vivo, mouse; settings: 5 min session, compared with saline
Text: Open Field Test: Mice were placed in an evenly illuminated 50 cm×50 cm open field test box. Mouse position was captured using a webcam and Viewer software (Biobserve).

[6] = test system: mice; assay: Tail suspension test; type: in vivo, mouse
Protocol: Tail Suspension Test: Mouse activity was recorded using a 60 Hz web camera. Struggling activity was quantified for minutes 2-10. […] Illumination began 30 seconds before tails were secured with tape and suspended from the beam. Mice were excluded if they climbed on their own tails.

CNC1(c2ccccc2Cl)CCCCC1=O (centres unmarked) [ketamine]
1-3 Hz RSP oscillation ([1]; ketamine 13 mg/kg, listed as Ketamine): not 13 mg/kg
1-3 Hz RSP oscillation ([1]; ketamine 25 mg/kg): rhythm at 25 mg/kg
consciousness (spontaneous ambulation, response to external stimuli) ([2]; ketamine >=25 mg/kg, subanesthetic): consciousness was maintained
righting of postural inversion ([2]; ketamine, knockout and wild-type mice): all mice successfully-righted postural inversion
typical dose for anti-depressant effects [3]: 3 to 10 mg/kg
correlations of brain regions with RSP ([4]; 8-12 min after 50 mg/kg ketamine i.p.): correlations with RSP were reduced
correlation of laterodorsal and anteroventral thalamus with each other and RSP ([4]; subanesthetic ketamine): became more-strongly correlated to each other and RSP
rhythmicity of specific subcortical regions ([4]; subanesthetic ketamine): exhibiting increased rhythmicity
open-field locomotion velocity [5]: decreased velocity
tail-suspension escape responses ([6]; ketamine >=25 mg/kg): similarly suppressed tail-suspension escape responses
tail suspension-escape behavior ([6]; ketamine, both channel-knockouts vs wild-type): modestly-recovered tail suspension-escape behavior
